Data taken from the NIST ThermoML archive (doi:10.1016/j.jct.2014.02.008).

Test: cn = amount concentration of the nth substance listed, in mol/dm3
Details: 298.15 K, 101 kPa, Liquid, Taylor dispersion method

NCCCC[C@H](N)C(=O)O [L-lysine] + O
Details	binary diffusion coefficient [m2/s]
c1 = 0.001	6.66e-10
c1 = 0.005	6.62e-10
c1 = 0.01	6.61e-10
c1 = 0.02	6.59e-10
c1 = 0.03	6.52e-10
c1 = 0.05	6.46e-10
c1 = 0.1	6.26e-10
